Tests used:
in vivo = test: in vivo; design: species or system SCID mice; conditions: SCID, mouse, iv, 10 pmol peptide, total radioactivity, %ID/g tissue
Description: (§1) The human epidermoid A431 cell line transfected to stably express the CCK2R (A431-CCK2R(+)) or devoid of CCK2R expression (A431-CCK2R(−)) used for tumour induction in this work was a gift from Prof. O. Boerman (Department of Nuclear Medicine, Radboud University Nijmegen Medical Centre, Nijmegen, The Netherlands) and Prof. L. Aloj (Istituto di Biostrutture e Bioimmagini, Consiglio Nazionale delle Ricerche, Naples, Italy) and cells were cultured as previously reported ([Aloj et al., 2004]). Suspensions of freshly harvested A431-CCK2R(±) cells (~150 μL, 1.6 × 10^7/1.4 × 10^7) in normal saline were subcutaneously injected in the flanks of mice.
(§2) Animals were euthanized in groups of four at 1 h, 4 h and 24 h pi; in a separate 4-h group animals received gelofusine (100 μL) together with the radioligand. […] Mice were dissected and samples of blood and tissues of interest as well as tumours were excised, weighted and counted for radioactivity in the gamma counter. Data was calculated as percent injected dose per gram tissue (%ID/g) with the aid of suitable standards of the injected dose and represent mean ± SD. In all above experiments, analysis of the solution used in the biodistribution experiment was conducted prior to and after completion of all animal injections.
(§3) Statistical analysis using the unpaired two-tailed Student’s t-test was performed to compare values between A431-CCK2R(+) and A431-CCK2R(−) tumours, as well as kidney, stomach and A431-CCK2R(+) tumour values between 4 h control and gelofusine-treated animal groups; values P < 0.05 were considered statistically significant (Table 2). The pharmacokinetic profile was determined by fitting an exponential curve through the organ time-activity data according to the least-squares method. The number of exponentials in the fitted curve was analysed according to the Aikake Information Criterion (AICc). All fitting was performed with Graphpad Prism version 5.

A431-CCK2R(±) xenografts = test: in vivo; design: species or system SCID mice; conditions: SCID, mouse, iv, 10 pmol peptide, 4 h
Description: as §1, §2, §3

[1] = design: species or system mice
Description: (§4) Clearance kinetics in each organ was determined by exponential curve fitting. The time-integrated activity concentration (TIAC) was obtained by integration of this exponential curve folded with the decay curve of ^111In and ^177Lu.Mouse dosimetry was calculated for both ^177Lu and ^111In using the TIAC and the 25 g RADAR mouse absorbed dose rates per unit activity S for each source and target organ combination ([Keenan et al., 2010]; [Konijnenberg et al., 2014]).

[2] = design: species or system humans
Description: as §4
Extrapolation of biodistribution uptake data in mice to humans was based on two options for interspecies scaling ([Stabin, 2008]). 1. (%IA/organ)human=[(%IA/g)mouse×Mmouse(kg)]×(m(g)/M(kg))human with m the organ mass and M the total body weight of mouse or human and with %IA/gand%IA/organ the percentage of the injected activity concentration and per organ, respectively. The mouse organ TIACs are multiplied with the ratio of mouse and human body weights Mmouse/Mhuman to obtain the extrapolated human TIAC, and this multiplied with the organ mass (from the MIRD standard man phantom) yields the residence time in each source organ. 2. (%IA/organ)human=(%IA/organ)mouse=(%IA/g)mouse×mmouse in this method the uptake per organ is extrapolated one-to-one from mouse to man. The extrapolated human residence time is obtained by multiplying the mouse TIAC or each source organ with its mouse organ mass. […]

CSCC[C@H](NC(=O)[C@H](Cc1c[nH]c2ccccc12)NC(=O)CNC(=O)[C@H](Cc1ccc(O)cc1)NC(=O)[C@H](C)NC(=O)[C@@H](CCC(=O)O)NC(=O)[C@@H](CCC(=O)O)NC(=O)[C@@H](CCC(=O)O)NC(=O)[C@@H](CCC(=O)O)NC(=O)[C@@H](CCC(=O)O)NC(=O)[C@@H](CCC(=O)O)NC(=O)CN1CCN(CC(=O)O)CCN(CC(=O)O)CCN(CC(=O)O)CC1)C(=O)N[C@@H](CC(=O)O)C(=O)N[C@@H](Cc1ccccc1)C(N)=O [^111In-CP04, ^111In-DOTA-(DGlu)6-Ala-Tyr-Gly-Trp-Met-Asp-Phe-NH2, metal not drawn]
tissue uptake at 1 h (in vivo; Blood): 0.55 ± 0.17 %ID/g
tissue uptake at 4 h (in vivo; Blood): 0.02 ± 0.01 %ID/g
tissue uptake at 1 h (in vivo; Femur): 0.96 ± 0.46 %ID/g
tissue uptake at 4 h (in vivo; Femur): 0.3 ± 0.22 %ID/g
tissue uptake at 24 h (in vivo; Femur): 0.24 ± 0.09 %ID/g
tissue uptake at 1 h (in vivo; Heart): 0.24 ± 0.08 %ID/g
tissue uptake at 4 h (in vivo; Heart): 0.02 ± 0.01 %ID/g
tissue uptake at 24 h (in vivo; Heart): 0.02 %ID/g
tissue uptake at 1 h (in vivo; Intestines): 0.36 ± 0.13 %ID/g
tissue uptake at 4 h (in vivo; Intestines): 0.22 ± 0.08 %ID/g
tissue uptake at 24 h (in vivo; Intestines): 0.1 ± 0.04 %ID/g
tissue uptake at 1 h (in vivo; Kidneys): 5.53 ± 0.78 %ID/g
tissue uptake at 4 h (in vivo; Kidneys): 5.55 ± 0.94 %ID/g
tissue uptake at 24 h (in vivo; Kidneys): 3.29 ± 0.56 %ID/g
tissue uptake at 1 h (in vivo; Liver): 0.38 ± 0.12 %ID/g
tissue uptake at 24 h (in vivo; Liver): 0.01 ± 0.01 %ID/g
tissue uptake at 1 h (in vivo; Lung): 0.47 ± 0.13 %ID/g
tissue uptake at 4 h (in vivo; Lung): 0.04 ± 0.01 %ID/g
tissue uptake at 24 h (in vivo; Lung): 0.03 ± 0.01 %ID/g
tissue uptake at 4 h (in vivo; Muscle): 0.03 ± 0.02 %ID/g
tissue uptake at 24 h (in vivo; Muscle): 0.01 ± 0.01 %ID/g
tissue uptake at 1 h (in vivo; Pancreas): 0.23 ± 0.08 %ID/g
tissue uptake at 4 h (in vivo; Pancreas): 0.06 ± 0.01 %ID/g
tissue uptake at 24 h (in vivo; Pancreas): 0.05 ± 0.01 %ID/g
tissue uptake at 4 h (in vivo; Spleen): 0.04 ± 0.02 %ID/g
tissue uptake at 24 h (in vivo; Spleen): 0.05 ± 0.01 %ID/g
tissue uptake at 1 h (in vivo; Stomach): 2.6 ± 0.48 %ID/g
tissue uptake at 4 h (in vivo; Stomach): 2.09 ± 0.32 %ID/g
tissue uptake at 24 h (in vivo; Stomach): 1.58 ± 0.15 %ID/g
tissue uptake at 1 h (in vivo; Tumour(+) (A431-CCK2R(+))): 12.6 ± 1.73 %ID/g
tissue uptake at 4 h (in vivo; Tumour(+) (A431-CCK2R(+))): 9.24 ± 1.35 %ID/g
tissue uptake at 24 h (in vivo; Tumour(+) (A431-CCK2R(+))): 4.98 ± 0.56 %ID/g
tissue uptake at 1 h (in vivo; Tumour(–) (A431-CCK2R(–))): 1.07 ± 0.29 %ID/g
tissue uptake at 24 h (in vivo; Tumour(–) (A431-CCK2R(–))): 0.1 ± 0.02 %ID/g
%ID/g tissue, Intestines (A431-CCK2R(±) xenografts): 0.29 ± 0.18 %ID/g
%ID/g tissue, Kidneys (A431-CCK2R(±) xenografts): 6.52 %ID/g
%ID/g tissue, Liver (A431-CCK2R(±) xenografts): 0.12 ± 0.02 %ID/g
%ID/g tissue, Stomach (A431-CCK2R(±) xenografts): 1.63 ± 0.20 %ID/g
%ID/g tissue, Tumour(+) (A431-CCK2R(+)) (A431-CCK2R(±) xenografts): 8.49 %ID/g
Absorbed dose per injected activity, Bone [1]: 9 mGy/MBq
Absorbed dose per injected activity, Kidneys [1]: 56 mGy/MBq
Absorbed dose per injected activity, Large intestine [1]: 7 mGy/MBq
Absorbed dose per injected activity, Liver [1]: 3 mGy/MBq
Absorbed dose per injected activity, Lungs [1]: 3 mGy/MBq
Absorbed dose per injected activity, Pancreas [1]: 5 mGy/MBq
Absorbed dose per injected activity, Small intestine [1]: 7 mGy/MBq
Absorbed dose per injected activity, Spleen [1]: 3 mGy/MBq
Absorbed dose per injected activity, Stomach wall [1]: 15 mGy/MBq
Absorbed dose per injected activity, Total body [1]: 4 mGy/MBq
calculated absorbed dose for kidneys [2]: 27.5 mGy/220 MBq
expected whole body radiation dose (effective dose) [2]: 9.9 mSv

Reference: article PMC4948680 (European journal of pharmaceutical sciences : official …, 2016)
